Ki and Ratio Ki data for six molecules are collected here from ChEMBL document CHEMBL1914398, “Synthesis and evaluation of novel N-fluoropyridyl derivatives of tropane as potential PET imaging agents for the dopamine transporter” (Bioorg Med Chem Lett, 2011).

The target of assay [1] is Sodium-dependent dopamine transporter (Homo sapiens, UniProt Q01959). The experiment in a line: Displacement of [125I]-IPT from DAT transfected in pig LLC-PK1 cells by radioligand competition binding assay. Type of assay: cell-based. For orientation: Loss of bound radioactivity is the signal in a displacement assay; it reports binding, not function.
The target in assay [2] is Sodium-dependent serotonin transporter (Homo sapiens, UniProt P31645). The experiment in a line: Displacement of [125I]-IDAM from SERT transfected in pig LLC-PK1 cells by radioligand competition binding assay. Type of assay: cell-based.
For assay [3], the target named is Sodium-dependent noradrenaline transporter (Homo sapiens, UniProt P23975). The assay can be described thus: Displacement of [125I]-INXT from NET transfected in pig LLC-PK1 cells by radioligand competition binding assay. Type of assay: cell-based.
Assay [4] is described as follows: Selectivity ratio of Ki for SERT to Ki for DAT.
Assay [5] in a line: Selectivity ratio of Ki for NET to Ki for DAT.

Sodium-dependent serotonin transporter, sequence (P31645 whole entry): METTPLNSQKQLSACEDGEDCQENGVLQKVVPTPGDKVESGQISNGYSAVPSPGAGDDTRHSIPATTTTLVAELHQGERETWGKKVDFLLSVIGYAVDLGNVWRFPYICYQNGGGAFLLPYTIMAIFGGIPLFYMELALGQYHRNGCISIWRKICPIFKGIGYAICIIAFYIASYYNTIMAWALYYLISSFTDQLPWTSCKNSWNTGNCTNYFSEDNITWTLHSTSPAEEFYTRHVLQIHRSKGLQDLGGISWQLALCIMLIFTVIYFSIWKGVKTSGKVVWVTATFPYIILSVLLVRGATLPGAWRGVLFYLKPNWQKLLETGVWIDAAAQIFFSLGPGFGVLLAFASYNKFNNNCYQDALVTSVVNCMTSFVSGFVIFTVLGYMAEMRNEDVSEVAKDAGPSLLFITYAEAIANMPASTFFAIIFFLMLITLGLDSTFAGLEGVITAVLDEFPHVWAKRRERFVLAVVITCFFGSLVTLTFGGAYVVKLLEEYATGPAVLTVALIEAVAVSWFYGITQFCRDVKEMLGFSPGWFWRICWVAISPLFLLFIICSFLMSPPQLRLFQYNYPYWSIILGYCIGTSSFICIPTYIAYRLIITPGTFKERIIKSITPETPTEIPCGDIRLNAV
Sodium-dependent dopamine transporter, sequence (Q01959 whole entry): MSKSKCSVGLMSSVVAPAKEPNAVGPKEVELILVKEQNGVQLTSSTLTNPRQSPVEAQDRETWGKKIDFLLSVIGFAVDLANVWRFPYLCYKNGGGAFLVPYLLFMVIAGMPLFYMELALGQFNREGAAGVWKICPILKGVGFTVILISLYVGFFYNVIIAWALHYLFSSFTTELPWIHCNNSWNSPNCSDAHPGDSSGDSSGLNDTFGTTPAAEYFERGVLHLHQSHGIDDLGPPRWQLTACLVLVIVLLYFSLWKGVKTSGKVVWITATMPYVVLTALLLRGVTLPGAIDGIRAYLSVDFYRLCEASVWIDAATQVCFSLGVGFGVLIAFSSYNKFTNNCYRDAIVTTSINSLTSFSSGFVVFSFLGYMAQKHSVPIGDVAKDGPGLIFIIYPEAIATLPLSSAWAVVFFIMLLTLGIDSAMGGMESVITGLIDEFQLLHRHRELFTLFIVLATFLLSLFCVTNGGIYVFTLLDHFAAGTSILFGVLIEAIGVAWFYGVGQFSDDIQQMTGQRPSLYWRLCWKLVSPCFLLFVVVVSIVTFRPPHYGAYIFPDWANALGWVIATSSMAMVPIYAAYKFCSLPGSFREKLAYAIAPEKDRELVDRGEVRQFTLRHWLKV
Sodium-dependent noradrenaline transporter, sequence (P23975 whole entry): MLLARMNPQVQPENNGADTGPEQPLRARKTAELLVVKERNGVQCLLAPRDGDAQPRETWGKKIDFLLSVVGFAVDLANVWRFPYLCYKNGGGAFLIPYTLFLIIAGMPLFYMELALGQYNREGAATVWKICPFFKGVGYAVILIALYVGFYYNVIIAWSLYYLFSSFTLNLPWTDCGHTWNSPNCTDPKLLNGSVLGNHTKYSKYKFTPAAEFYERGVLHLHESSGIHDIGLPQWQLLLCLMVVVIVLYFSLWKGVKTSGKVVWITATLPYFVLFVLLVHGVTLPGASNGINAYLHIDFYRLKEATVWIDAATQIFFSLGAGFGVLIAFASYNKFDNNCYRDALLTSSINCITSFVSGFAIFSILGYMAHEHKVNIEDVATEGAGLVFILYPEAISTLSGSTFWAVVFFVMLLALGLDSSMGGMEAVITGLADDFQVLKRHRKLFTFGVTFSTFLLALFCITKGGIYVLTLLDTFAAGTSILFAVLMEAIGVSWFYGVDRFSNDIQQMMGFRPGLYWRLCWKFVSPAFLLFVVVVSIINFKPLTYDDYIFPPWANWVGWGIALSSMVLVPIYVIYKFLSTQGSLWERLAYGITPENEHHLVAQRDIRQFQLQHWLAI

`CN1C2CCC1[C@@H](CNc1ccc(Br)nc1)[C@@H](c1ccc(Cl)cc1)C2` (stereo not given in full): the Ki turned out to be 17.9 nM in assay [1], 10.5 nM in assay [2] and 49.1 nM in assay [3]. The Ratio Ki in assay [4] amounted to 0.6; in assay [5] it was 2.7.

As to `CN1C2CCC1[C@@H](C(=O)Nc1ccc(Br)nc1)[C@@H](c1ccc(Cl)cc1)C2` (stereo not given in full), the figures for the Ki in assay [1], in assay [2] and in assay [3] were 106 nM, 15300 nM and 16200 nM, respectively. Further, the results for the Ratio Ki in assay [4] and in assay [5] were 144 and 153, respectively.

With `CN1C2CCC1[C@@H](C(=O)Nc1ccnc(Br)c1)[C@@H](c1ccc(Cl)cc1)C2` (stereo not given in full), the values for the Ki in assay [1], in assay [2] and in assay [3] were 82.2 nM, 10300 nM and 12100 nM, respectively. The Ratio Ki in assay [4] was 125; in assay [5] it was 147.

For `CN1C2CCC1[C@@H](CNc1ccnc(Br)c1)[C@@H](c1ccc(Cl)cc1)C2` (stereo not given in full), the Ki in assay [1] amounted to 7.9 nM; in assay [2], 11 nM; in assay [3], 27.7 nM. Also, the Ratio Ki is 1.4 in assay [4] and 3.5 in assay [5].

With `CN1C2CCC1[C@@H](C(=O)Nc1cccc(Br)n1)[C@@H](c1ccc(Cl)cc1)C2` (stereo not given in full), the Ki in assay [1] turned out to be 86.7 nM; in assay [2], 3210 nM; in assay [3], 3850 nM. In addition, the Ratio Ki in assay [4] was found to be 37; in assay [5], 44.

As for `CN1C2CCC1[C@@H](CNc1cccc(F)n1)[C@@H](c1ccc(Cl)cc1)C2` (stereo not given in full), the Ki worked out at 4.1 nM in assay [1], 20.6 nM in assay [2] and 66.2 nM in assay [3]. Further, the Ratio Ki in assay [4] is 5; in assay [5], 16.

In general, Ki refers to a measure of affinity in units of concentration, obtained from inhibition or displacement.
